Measurements taken from patent US11584728B2, “Compositions and methods for the prevention and/or treatment of mitochondrial disease, including Friedreich's ataxia” (STEALTH BIOTHERAPEUTICS INC., priority 2019, dated 2023).
Where two headings read alike, the source gives them in different places.

What was measured:
[1] = tested on: frataxin deficient fibroblasts (GM03665); experiment: Frataxin Deficient Fibroblast Viability Assay (BSO Assay); conditions: Homo sapiens, 48 h
[2] = tested on: HepG2 human hepatocarcinoma cells; experiment: Rotenone ATP-Assay (Complex I by-pass); type: cell-based; conditions: for Activity in both the BSO Assay and the Rotenone ATP Assay (in words): circumvent BSO induced cell death and restore ATP production when Complex I is inhibited; for EC50: Homo sapiens, 1 h, HepG2 cells, 50 micromolar rotenone, 60 minutes
Experimental: Example 18: Rotenone ATP-Assay
Introduction: • This assay has been adapted from Haefeli R H, Erb M, Gemperli A C, Robay D, Courdier Fruh I, et al. (2011) NQO1-Dependent Redox Cycling of Idebenone: Effects on Cellular Redox Potential and Energy Levels. PLoS ONE 6(3): e17963. HepG2 human hepatocarcinoma cells were co-incubated with the electron transport chain Complex I toxin rotenone +/−compounds of interest and the corresponding effect on ATP synthesis was measured with a bioluminescent substrate.
Assay Experimental: • In brief, HepG2 cells were plated at 25,000 cells per well in low glucose (1 gram/Liter) DMEM medium +10% fetal calf serum and incubated for 24 hours. The following day, the media was decanted and subsequently replaced with glucose free/serum free DMEM which has been supplemented with 50 micromolar rotenone and compound of interest. Serial dilutions of compound were prepared in 3× dilutions beginning at 25 micromolar. The cells were incubated for 60 minutes in a humidified tissue culture incubator. Following incubation, ATP levels were quantified via bioluminescent assay (Promega […]) and readings were captured on a standard microplate reader.
Calculations: • ATP bioluminescence is plotted versus the log of compound of interest and data were used to generate EC50 values. Curve fitting was performed using a sigmoidal dose response curve fit function (GraphPad Prism software).
Robustness of curve fit was assessed as a quality control measure, with an R squared value of at least 0.80 being required for a successful curve fit. Compounds of interest showing an increase in ATP bioluminescence relative to vehicle control were verified in an independent biological replicate of n=3 technical replicates per dose.
Discussion: • This assay is a direct measure of the ability of compounds of interest to restore ATP production under conditions of inhibition of Complex I of the mitochondrial electron transport chain. As the majority of ATP produced via the electron transport chain is thought to derive from Complex I activity, significant impairment in Complex I function has dire biological consequences. Of note, Complex I mutations are thought to drive pathophysiology in multiple mitochondrial diseases, including Leigh syndrome and Leber's Hereditary Optic Neuropathy (LHON), while diminished Complex I activity and the resultant attenuation of ATP production has been shown in neurodegenerative diseases, including Friedreich's Ataxia, Parkinson's Disease and Huntington's Disease.

[3] = tested on: GM03665 cells; experiment: RSL3 Toxicity Assay (RSL3 Assay); type: cell-based, human; conditions: Homo sapiens, GM03665 cells, RSL3 2 μM, 24 hours, MTT
Experimental: Example 19: RSL3 Toxicity Assay (RSL3 Assay)
In brief, GM03665 cells (Coriell Institute) were seeded in 96-well plates (Sarstedt) in DMEM cell culture media containing 10% Fetal Bovine serum and 1% Penicillin-Streptomycin (Pen-Strep) antibiotic mix at the amount of 2×10^4/mL (100 μL or 2×10^3 cells per well). Cells were left to rest overnight at 37° C. in a humidified atmosphere with 5% CO2 to allow attachment of the cells to the culture plate. Test compounds were prepared as DMSO stocks (10 mM) and were serially diluted in cell culture media to obtain 2× working solutions. Cell media was discarded and replaced by 50 μL of test compound solutions or cell media with vehicle for control wells. Within 15 minutes, 2× working solution (4 μM) of 1S,3R-RSL3 (CAS #1219810-16-8, Sigma-Aldrich) (diluted from 5 mM DMSO stock in cell culture media) was added. Final reaction volume was 100 μL and final DMSO concentration in reaction was kept below 0.2% (v/v) and equal in all wells. Final RSL3 concentration was 2 μM and test compound final concentrations in reaction were up to 1000 nM. After 24 hours of incubation cell viability was assessed by MTT test. MTT (Sigma-Aldrich) solution 1 mg/mL in 1×PBS (pH=7,4) was prepared 1 hour before the assay and filtered through Filtropur S 0.2 filters (Sarstedt). Cell media with test compounds was discarded and 100 μL of MTT solution was added to cells. The plates were incubated for 2 hours at +37° C. Thereafter, the MTT solution was removed and 100 μL of isopropanol was added to dissolve sediment. Absorption at 570 and 650 nm was measured using Hidex Sense microplate reader.

[4] = tested on: Nrf-2; experiment: Nrf-2 Activation Assay (Nrf-2 Assay); type: cell-based, human; conditions: 1 μM, 24 hours; for Nrf-2 Assay: Table 7, GM03665 fibroblasts, qPCR of Nrf-2 responsive genes
Experimental: Example 21: Nrf-2 Activation Assay (Nrf-2 Assay)
This assay was developed internally and was designed to determine if the novel test compounds disclosed herein active Nrf-2 and thereby promote resolution of inflammation by the mechanism believed to be responsible for the activity of omaveloxolone.
Briefly, GM03665 Friedreich Ataxia patient fibroblasts were grown in 12 Well Plates (TC Cell+F) (Sarstedt, Nümbrecht Germany), at a density of 12×10^4 cells/per well in DMEM/F12 (Gibco, ThermoFisher Scientific, Waltham, Mass., USA) cell media supplemented with 10% FBS and 1% Pen/Strep. Cells were left to rest overnight at 37° C. in a humidified atmosphere with 5% CO2 to allow attachment of the cells to the culture plate. Before continuing assay visual inspection of each well was done by light microscopy to detect any possible bacterial and fungal contamination. […] After incubation, cell media was removed and total RNA from the cells was isolated using E.Z.N.A.® Total RNA Kit I (Omega Bio-tek, Norcross, Ga., USA) spin columns, and first-strand cDNA synthesis was carried out using a High Capacity cDNA Reverse Transcription Kit (Applied Biosystems™, Foster City, Calif.) following the manufacturer's instructions. qPCR analysis of gene expression was performed by mixing SYBR® Green Master Mix (Applied Biosystems™) with synthesized cDNA and forward and reverse primers. […] (60 cycles), and 95° C. for 60 seconds, followed by melt curve analysis at 72-95° C., 0.3° C./sec. The relative expression levels for each gene were calculated with the ΔΔCt method and normalized to the expression of REEP5 and SNRPD3 genes.

[5] = ATP bioluminescence, read-out: EC50 Rotenone ATP Assay
[6] = Table 3, mean of at least three measurements, nM printed in Table 7, read-out: RSL3 Assay EC50, Mean
[7] = Table 7, read-out: RSL3 Assay EC50
[8] = Table 7, read-out: Rotenone ATP Assay EC50

Row | Structure (SMILES) | EC50 ([1]; read-out: EC50 (nM) BSO Assay) | EC50 [2, 5] | EC50 ([1]; read-out: BSO Assay) | further results
1 | C/C(=C\CC[C@]1(C)CCc2c(C)c(O)c(C)c(C)c2O1)CCC=C(F)F [Compound 56, (R,E)-2-(8,8-difluoro-4-methylocta-3,7-dien-1-yl)-2,5,7,8-tetramethylchroman-6-ol] | < 100 nM |  |  | 
2 | Cc1c(C)c2c(c(C)c1O)CC[C@@](C)(CCC=C(F)F)O2 [Compound 67, (R)-2-(4,4-difluorobut-3-en-1-yl)-2,5,7,8-tetramethylchroman-6-ol] | < 100 nM |  |  | Activity in both the BSO Assay and the Rotenone ATP Assay (in words) [2]: possess both activities
3 | CC1=C(C)C(=O)C(CC[C@](C)(O)CC/C=C(\C)CC/C=C(\C)CCC=C(CF)CF)=C(C)C1=O [Compound A, 2-((R,6E,10E)-16-fluoro-15-(fluoromethyl)-3-hydroxy-3,7,11-trimethylhexadeca-6,10,14-trien-1-yl)-3,5,6-trimethylcyclohexa-2,5-diene-1,4-dione] | < 100 nM |  |  | 
4 | CC(=CCC/C(C)=C/CC/C(C)=C/CC[C@@](C)(O)CCC1=C(C)C(=O)C(C)=C(C)C1=O)CF [Compound B, 2-((R,6E,10E)-16-fluoro-3-hydroxy-3,7,11,15-tetramethylhexadeca-6,10,14-trien-1-yl)-3,5,6-trimethylcyclohexa-2,5-diene-1,4-dione] | < 100 nM |  |  | 
5 | CC1=C(C)C(=O)C(CC[C@](C)(O)CC/C=C(\C)CC/C=C(\C)CCC=C(F)F)=C(C)C1=O [Compound C, 2-((R,6E,10E)-15,15-difluoro-3-hydroxy-3,7,11-trimethylpentadeca-6,10,14-trien-1-yl)-3,5,6-trimethylcyclohexa-2,5-diene-1,4-dione] | < 100 nM |  |  | 
6 | CC1=C(C)C(=O)C(CC[C@](C)(O)CC/C=C(\C)CC/C=C(\C)CCC=C2CCC2)=C(C)C1=O [Compound D, 2-((R,6E,10E)-14-cyclobutylidene-3-hydroxy-3,7,11-trimethyltetradeca-6,10-dien-1-yl)-3,5,6-trimethylcyclohexa-2,5-diene-1,4-dione] | < 100 nM | > 3000 nM |  | 
7 | CC1=C(C)C(=O)C(CC[C@](C)(O)CC/C=C(\C)CC/C=C(\C)CCC=C2CCCC2)=C(C)C1=O [Compound F, 2-((R,6E,10E)-14-cyclopentylidene-3-hydroxy-3,7,11-trimethyltetradeca-6,10-dien-1-yl)-3,5,6-trimethylcyclohexa-2,5-diene-1,4-dione] | < 100 nM |  |  | 
8 | CC1=C(C)C(=O)C(CC[C@](C)(O)CC/C=C(\C)CC/C=C(\C)CCC=C2CCCCC2)=C(C)C1=O [Compound G, 2-((R,6E,10E)-14-cyclohexylidene-3-hydroxy-3,7,11-trimethyltetradeca-6,10-dien-1-yl)-3,5,6-trimethylcyclohexa-2,5-diene-1,4-dione] | < 100 nM |  |  | 
9 | CC1=C(C)C(=O)C(CC[C@](C)(O)CC/C=C(\C)CCC=C(F)F)=C(C)C1=O [Compound H, (R,E)-2-(11,11-difluoro-3-hydroxy-3,7-dimethylundeca-6,10-dien-1-yl)-3,5,6-trimethylcyclohexa-2,5-diene-1,4-dione] | 100 to 1000 nM | < 1000 nM | 164 nM | EC50 [3, 6]: 179 nM; EC50 [3, 7]: 179 nM; EC50 [2, 8]: 1140 nM; Nrf-2 Assay [4]: Inactive
10 | CC1=C(C)C(=O)C(CC[C@](C)(O)CCC=C(F)F)=C(C)C1=O [Compound I, (R)-2-(7,7-difluoro-3-hydroxy-3-methylhept-6-en-1-yl)-3,5,6-trimethylcyclo-hexa-2,5-diene-1,4-dione] | 100 to 1000 nM | > 3000 nM |  | 
11 | CC1=C(C)C(=O)C(CC[C@@](C)(O)CC/C=C(\C)CC/C=C(\C)CCC=C(F)F)=C(C)C1=O [Compound J, 2-((S,6E,10E)-15,15-difluoro-3-hydroxy-3,7,11-trimethylpentadeca-6,10,14-trien-1-yl)-3,5,6-trimethylcyclohexa-2,5-diene-1,4-dione] | < 100 nM |  |  | 
12 | CC1=C(C)C(=O)C(CC[C@@](C)(O)CCC=C(F)F)=C(C)C1=O [Compound K, (S)-2-(7,7-difluoro-3-hydroxy-3-methylhept-6-en-1-yl)-3,5,6-trimethylcyclo-hexa-2,5-diene-1,4-dione] | < 100 nM | > 3000 nM |  | 
13 | CC1=C(C)C(=O)C(CC[C@@](C)(O)CC/C=C(\C)CCC=C(F)F)=C(C)C1=O [Compound L, (S,E)-2-(11,11-difluoro-3-hydroxy-3,7-dimethylundeca-6,10-dien-1-yl)-3,5,6-trimethylcyclohexa-2,5-diene-1,4-dione] | < 100 nM | < 1000 nM | 39.1 nM | EC50 [3, 6]: 41.9 nM; EC50 [3, 7]: 41.9 nM; EC50 [2, 8]: 891 nM; Activity in both the BSO Assay and the Rotenone ATP Assay (in words) [2]: possess both activities; Nrf-2 Assay [4]: Inactive
14 | CC1=C(C)C(=O)C(CC[C@](C)(O)CCCCCCCCC(F)(F)F)=C(C)C1=O [Compound N, (R)-2,3,5-trimethyl-6-(12,12,12-trifluoro-3-hydroxy-3-methyldodecyl)cyclo-hexa-2,5-diene-1,4-dione] | 100 to 1000 nM | 1000 to 3000 nM | 144 nM | EC50 [3, 6]: 93 nM; EC50 [3, 7]: 93 nM; EC50 [2, 8]: 2360 nM; Activity in both the BSO Assay and the Rotenone ATP Assay (in words) [2]: possess both activities; Nrf-2 Assay [4]: Inactive
15 | COC1=C(OC)C(=O)C(CCCCCCCCCCO)=C(C)C1=O [Idebenone, reference compound] |  | 1000 to 3000 nM | > 1000 nM | EC50 [2, 8]: 1560 nM
16 | CC1(C)CC[C@]2(NC(=O)C(C)(F)F)CC[C@]3(C)[C@H](C(=O)C=C4[C@@]5(C)C=C(C#N)C(=O)C(C)(C)[C@@H]5CC[C@]43C)[C@@H]2C1 [Omaveloxolone, reference compound] | < 100 nM | > 3000 nM | 48.6 nM | Activation of Nrf-2 responsive genes (in words, FIG. 7) [4]: positive; Nrf-2 Assay [4]: Active
